Results taken from ChEMBL document CHEMBL4376801, “Glycans in drug discovery” (Medchemcomm, 2019).

Experiments:
[1] = molecular target: Type 1 fimbrin D-mannose specific adhesin (Escherichia coli K-12, UniProt P08191); experiment: Binding affinity to Escherichia coli full-length FimH by competitive fluorescence polarization assay
CD209 antigen = molecular target: T1, CD209 antigen (Homo sapiens, UniProt Q9NNX6); experiment: Binding affinity to human DC-SIGN by SPR analysis
T1 sequence (Q9NNX6 whole entry): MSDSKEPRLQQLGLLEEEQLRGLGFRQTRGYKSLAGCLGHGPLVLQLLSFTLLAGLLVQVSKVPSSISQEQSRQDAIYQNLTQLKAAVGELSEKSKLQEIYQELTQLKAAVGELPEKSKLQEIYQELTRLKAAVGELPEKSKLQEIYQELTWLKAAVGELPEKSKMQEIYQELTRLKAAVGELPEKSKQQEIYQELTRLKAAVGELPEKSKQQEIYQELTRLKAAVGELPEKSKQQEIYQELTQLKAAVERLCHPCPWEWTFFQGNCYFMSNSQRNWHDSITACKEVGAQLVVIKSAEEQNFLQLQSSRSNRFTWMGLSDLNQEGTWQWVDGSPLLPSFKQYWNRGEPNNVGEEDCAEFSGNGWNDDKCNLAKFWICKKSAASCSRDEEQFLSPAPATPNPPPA

Sequence of Type 1 fimbrin D-mannose specific adhesin (P08191 whole entry): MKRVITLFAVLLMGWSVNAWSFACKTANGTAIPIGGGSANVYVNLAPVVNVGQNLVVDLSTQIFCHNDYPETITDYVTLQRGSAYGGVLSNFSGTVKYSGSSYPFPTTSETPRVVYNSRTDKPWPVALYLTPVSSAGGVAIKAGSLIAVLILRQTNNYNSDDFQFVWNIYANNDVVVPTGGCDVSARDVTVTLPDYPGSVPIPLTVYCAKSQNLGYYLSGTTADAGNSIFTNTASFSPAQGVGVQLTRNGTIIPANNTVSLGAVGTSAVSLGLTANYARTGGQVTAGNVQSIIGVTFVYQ

IC50 (CD209 antigen)	SMILES	Kd [1]
–	OC[C@H]1O[C@H](Oc2ccc(-c3ccccc3)cc2)[C@@H](O)[C@@H](O)[C@@H]1O	1.1 µM
–	N#Cc1c(F)c(F)c(-c2ccc(O[C@H]3O[C@H](CO)[C@@H](O)[C@H](O)[C@@H]3O)c(Cl)c2)c(F)c1F	0.0221 µM
481 µM	COC(=O)[C@H]1C[C@H](OCCN=[N+]=[N-])[C@@H](O[C@H]2O[C@H](CN)[C@@H](O)[C@H](O)[C@@H]2O)C[C@@H]1C(=O)OC	–
254 µM	[N-]=[N+]=NCCO[C@H]1C[C@H](C(=O)OCc2ccc(CN)cc2)[C@@H](C(=O)OCc2ccc(CN)cc2)C[C@@H]1O[C@H]1O[C@H](CN)[C@@H](O)[C@H](O)[C@@H]1O	–
